Where a SMILES comes first, the peptide text is derived from it. The star is where a group is joined. Tos = Cc1ccc(S(=O)(=O)*)cc1; Bn = c1ccc(C*)cc1
Target: T1, APE-1 (Homo sapiens (Human), UniProt P27695)
Assay: Molecular beacon assay for APE-1 endonuclease inhibition
Type: biochemical
Conditions: molecular beacon assay, endonuclease activity; read-out: Ki APE-1 endonuclease inhibition
Text: Screening Assays for APE1 Inhibition—The initial screen was designed to look at the effect of potential inhibitors on APE1 repair kinetics. The approach can be used as a high throughput screen by choosing a specific timepoint to monitor. The screen utilizes a molecular beacon with a tetrahydrofuran (THF) abasic site within the stem region of a DNA hairpin that has a fluorophore on the 5′-terminus and a quencher on the 3′-terminus (FIG. 2a). […] An example of the molecular beacon screen and the excision assay are shown in FIGS. 2b,c and 2d, respectively.
Molecular Beacon Assay for Screening of APE-1 Inhibitors. A fluorescence-based molecular beacon assay to measure APE-1 protein activity and inhibition was performed as described previously with some modifications. Tang et al. Neuro Oncol. 13, 471-486 (2011) APE-1 (2 nM) in 10 mM HEPES (pH 7.8) 0.5 mM MgCl, 100 mM NaCl, 100 mM KCl, 0.0005% (w/v) BSA, was incubated with 20 nM 5′-(F)-CGACTXTTGAATTGACACGCCATGTCGATCAATTCAATAGTCG-(D)-3′ [X=tetrahydrofuran (THF) abasic site modification; F, 6-carboxyfluorescein (6-FAM); and D, DABCYL] that forms a hairpin with a 15 base pair stem and a 13 base loop. The THF modification is a known substrate for APE-1 excision. APE-1 mediated cleavage of the phosphodiester backbone at the THF-abasic site led to release of the 5′ 6-FAM (fluorophore) containing pentanucleotide, disrupting the Förster Resonance Energy Transfer (FRET) mediated quenching of the 6-FAM by DABCYL in the native hairpin oligomer. Since the signal was generated by continuous liberation of the fluorophore-labeled excision fragment, progress of this reaction could be monitored in real-time using a Cary Eclipse fluorescence spectrometer (Varian, Palo Alto, Calif.) or a Synergy H1 multi-well plate reader (BioTek, Winooski, Vt.). Reactions were optimized to yield ˜90% substrate turnover in 10 min, and fluorescence intensities measured every 12 s at 495 nm excitation and 520 nm emission. Data from the first 1-3 min of the assays (linear phase) were used to determine rate of substrate turnover (V0). The Michaelis constant (KM) was deduced experimentally, by incubating 2 nM APE-1 protein with 2-500 nM hairpin DNA substrate and measuring V0 —the experimentally observed V0 were analyzed as a function of substrate concentration [S] via non-linear regression using Prism (v.4; GraphPad Software, Inc., La Jolla, Calif.) and the KM was calculated as per the algorithm in the software package. To assay inhibition, 2 nM APE-1 protein was pre-incubated with 0.05-10.00 μM of the candidate inhibitors at 25° C. for 60 min, before initiating the excision assay by addition of hairpin DNA substrate. V0 was calculated at various concentrations of inhibitors and represented as inverse function of increasing inhibitor concentration [I]. […] All assays were carried out in three independent sets to obtain mean data and standard error of mean.
(§1) Screening for APE-1 Inhibitors. […] In this assay, the DNA hairpin substrate has a 6-FAM fluorophore on the 5′-terminus, a DABACYL fluorescence quencher on the 3′-terminus and a THF abasic site located 6 base pairs from the 5′-terminus in the stem region (FIG. 6). APE-1 activity is monitored as an increase in fluorescence due to the release of the 5′-(6-FAM)-GCACT fragment as a function of time. […] In this assay, substrate turnover was calculated from relative intensities of cleaved vs. intact oligomers and correlated with inhibitor concentration.

T1 sequence (P27695 whole entry): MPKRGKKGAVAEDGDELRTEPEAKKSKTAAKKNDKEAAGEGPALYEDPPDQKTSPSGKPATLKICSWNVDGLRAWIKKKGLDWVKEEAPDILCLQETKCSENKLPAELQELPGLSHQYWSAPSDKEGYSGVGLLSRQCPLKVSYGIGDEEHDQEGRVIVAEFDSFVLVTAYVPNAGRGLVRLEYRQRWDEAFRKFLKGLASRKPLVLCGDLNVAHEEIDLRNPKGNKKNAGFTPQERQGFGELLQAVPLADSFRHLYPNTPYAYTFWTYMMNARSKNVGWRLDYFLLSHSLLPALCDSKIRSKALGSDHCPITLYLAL

| Ki [µM] | Structure (SMILES) |
| --- | --- |
| 0.22 | COc1cccc(/C=N/Nc2cc(C)nc3cc4c(cc23)OCO4)c1 [Compound 2] |
| 37 | O=C(/C=C(/Nc1ccccc1)C(=O)c1ccccc1)c1ccccc1 [Compound 14] |
| 13 | C=C(C[N+](=O)[O-])NC(CCCCNc1ccc([N+](=O)[O-])cc1N(O)O)C(=O)O (centres unmarked) [Compound 9] |
| 4.9 | N=c1[nH]nc2nc(CC(=O)c3ccccc3[N+](=O)[O-])c(CC(=O)c3ccccc3[N+](=O)[O-])nn12 [Compound 13] |
| 10.9 | C/C(=N\Nc1cc(C)nc2ccc(C)cc12)c1cn(C)n(-c2ccccc2)c1=O [Compound 7] |
| 0.64 | Cc1cc(N/N=C/c2ccc([N+](=O)[O-])o2)c2cc3c(cc2n1)OCO3 [Compound 6] |
| 6.7 | COc1ccc(/C(Cc2ccccc2)=N\Nc2ccc([N+](=O)[O-])c([N+](=O)[O-])c2)cc1 [Compound 11] |
| 32 | COc1ccc(C2C3=C(CC(C)(C)CC3=O)Oc3cc4c(cc32)OCO4)c(OC)c1 (centres unmarked) [Compound 12] |
| 17 | C/C=C/C(=O)NCCCCNC(=O)/C=C/c1ccc([N+](=O)[O-])cc1 [Compound 10] |

Same assay, conditions: molecular beacon assay, endonuclease activity; read-out: Ki APE-1 endonuclease inhibition (ND classes)

| Ki [µM] | Structure (SMILES) |
| --- | --- |
| > 100 | O=C(O)CC1(CC(=O)NCCc2c[nH]c3ccccc23)OCCO1 [Compound 18] |
| > 100 | Cn1c(=N)[nH]c2c(nc(OCc3ccccc3)n2C2OC(O)C(O)C2O)c1=O (centres unmarked) [Compound 21] |
| > 100 | Cc1ccc(S(=O)(=O)NC(CSCc2ccccc2)C(=O)NC(Cc2ccc(O)cc2)C(=O)O)cc1 (centres unmarked) [Compound 25] (Tos-Cys(Bn)-Tyr-OH; configuration not given here) |
| > 100 | CC(=O)N1N=C(c2cccc(NS(C)(=O)=O)c2)CC1c1cc2cc(C)c(C)cc2nc1Cl (centres unmarked) [Compound 30] |
| > 100 | CCOC(=O)CC/C(=C\NC(=O)c1ccccc1)NC(=O)c1ccccc1 [Compound 26] |
| > 100 | O=C(O)C(Cc1c[nH]c2ccc(O)cc12)NCC1(O)OCC(O)C(O)C1O (centres unmarked) [Compound 19] |
| > 100 | CC(N)C(=O)NC1C(CO)OC(n2cnc3c(N)ncnc32)C1O (centres unmarked) [Compound 17] |
| > 100 | CCc1cc2cc(C)c(C)cc2nc1SCC(=O)N1CCN(C(=O)c2ccco2)CC1 [Compound 29] |
| > 100 | O=C(NNc1ccnc2cc(Cl)ccc12)/C(=C/c1ccccc1Cl)NC(=O)c1ccccc1 [Compound 15] |
| > 100 | CC(NC(=O)/C(=C/c1ccccc1)NC(=O)c1ccccc1)c1ccccc1 (centres unmarked) [Compound 22] |
| > 100 | Cc1cc2cc3c(cc2n2c(SCC(=O)N4c5ccccc5CCc5ccccc54)nnc12)OCO3 [Compound 28] |
| > 100 | Nc1ncnc2c1ncn2C1OC(C(=O)NCC(=O)O)C(O)C1O (centres unmarked) [Compound 16] |

| Structure (SMILES) | Ki [µM] |
| --- | --- |
| C/C(=N\Nc1cc(C)c2ccccc2n1)c1cn(C)n(-c2ccccc2)c1=O [Compound 8] | > 100 |

Target: APE-1 activity in T98G cell nuclear lysates (Homo sapiens (Human), UniProt P27695)
Sequence (P27695 whole entry, stated change not applied): as the sequence (P27695 whole entry) above
Assay: Molecular beacon assay in T98G cell nuclear extracts
Type: biochemical
Conditions: not given
Procedure: Isolation and Assay of APE-1 Protein from Nuclear Extracts of Glioma Cells. Human glioblastoma cells (T98G) were maintained in growth medium, i.e., Eagle's Minimum Essential Medium (EMEM) with 10% fetal bovine serum (FBS), […] gentamycin, 1×MEM non-essential amino acids and 1 mM sodium pyruvate. Cells were harvested by Trypsin-EDTA treatment, washed with 1×PBS and nuclear proteins isolated using the CelLytic NuCLEAR Extraction kit (Sigma-Aldrich) as per manufacturer's instructions. Isolated nuclear proteins were estimated colorimetrically (BCA protein assay) and stored at −80° C. (long term) or at −20° C. during regular use. To assay APE-1 activity in T98G cells, nuclear extracts were serially diluted in 10 mM HEPES, 50 mM KCl, 1 mM DTT, 20% (v/v) glycerol and the activities measured via the molecular beacon assay (as described above). […] EC2 nM of nuclear extracts was incubated with 2 to 500 nM hairpin DNA substrate and the V0 measured for each value of [S]. Finally, the apparent KM* was deduced using the software algorithm in Prism (as described previously), and the KM* was used to determine the apparent Ki*. Inhibition of EC2 nM APE-1 activity by the inhibitors was assayed via the molecular beacon assay (described above).
Inhibition of APE-1 Activity in Nuclear Lysates. The ability of 1-5 and 8 to block APE-1 endonuclease activity in a complex mixture of proteins from T98G cell nuclear lysates was tested using the molecular beacon assay. The APE-1 activity in the lysates was standardized to give ˜90% turnover of 25 nM substrate in 10 min.

| Ki [µM] | Structure (SMILES) |
| --- | --- |
| 0.24 | COc1cccc(/C=N/Nc2cc(C)nc3cc4c(cc23)OCO4)c1 [Compound 2] |

System: aldehyde reactive sites in genomic DNA from T98G cells
Assay: not given
Type: cell-based, human
Conditions: 0.25 μM compound alone

| Structure (SMILES) | effect on ARS |
| --- | --- |
| C/C(=N\Nc1cc(C)c2ccccc2n1)c1cn(C)n(-c2ccccc2)c1=O [Compound 8] | same as background |

Target: T1, APE-1
Assay: Gel-based excision assay for APE-1 inhibitors
Type: biochemical
Conditions: APE-1 cleaved fragment vs. full length DNA substrate
Procedure: as §1

| Structure (SMILES) | IC50 [µM] |
| --- | --- |
| COc1cccc(/C=N/Nc2cc(C)nc3cc4c(cc23)OCO4)c1 [Compound 2] | 10.1 |
| C/C(=N\Nc1cc(C)c2ccccc2n1)c1cn(C)n(-c2ccccc2)c1=O [Compound 8] | > 100 |

Reference: patent publication US9624235B2, “Compounds and methods for inhibition of AP endonuclease-1/redox factor-1 (HAPE1) activity” (University of Pittsburgh—Of the Commonwealth System of …, priority 2012, dated 2017)
